{"source": "patent US4612285A", "about": "(priority 1982, dated 1986)", "key": {"Solubility": {"test": "Solubility", "type": "physicochemical"}, "Gram positive bacteria": {"system": "Gram positive bacteria", "test": "Antibacterial action, Gram positive bacteria (summary)", "type": "cell-based", "conditions": "summary in words", "source_text": "(§1) (1) Antimicrobial properties:"}, "Stability in heating": {"test": "Stability in heating", "type": "physicochemical", "conditions": "vacuum concentration preferably controlled below 60° C."}, "[1]": {"system": "Ehrlich ascites carcinoma", "test": "Effect on Ehrlich ascites carcinoma in mice", "type": "in vivo, mice (ddY, male, 6 weeks age)", "procedure": "Ehrlich ascites carcinoma, 2×10^6 cells, is inoculated into mice (ddY, male, 6 weeks age) intra peritoneally, administered awamycin as shown in the table, number of survival dates is observed.\nAdministered date is designates as 0th day at tumor inoculation date. Number of survival dates is shown as mean value in 4-5 mice in one group. Increased life span is calculated according to the following equation. [formula]"}, "Pyricularia oryzae": {"system": "Pyricularia oryzae", "type": "cell-based"}, "Gram negative bacteria": {"system": "Gram negative bacteria", "test": "Antimicrobial action, Gram negative bacteria (summary)", "type": "cell-based", "conditions": "summary in words", "source_text": "as §1"}, "yeast and fungi": {"system": "yeast and fungi", "test": "Antimicrobial action, yeast and fungi (summary)", "type": "cell-based", "conditions": "summary in words", "source_text": "as §1"}, "Aspergillus nigar": {"system": "Aspergillus nigar", "test": "Antimicrobial properties (MIC)", "type": "cell-based", "source_text": "as §1"}, "Shigella sonnai": {"system": "Shigella sonnai", "test": "Antimicrobial properties (MIC)", "type": "cell-based", "source_text": "as §1"}, "Saccharomyces sake": {"system": "Saccharomyces sake", "test": "Antimicrobial properties (MIC)", "type": "cell-based", "source_text": "as §1"}, "Escherichia coli NIHJ": {"system": "Escherichia coli NIHJ", "test": "Antimicrobial properties (MIC)", "type": "cell-based", "source_text": "as §1"}, "Salmonella typhimurium": {"system": "Salmonella typhimurium", "test": "Antimicrobial properties (MIC)", "type": "cell-based", "source_text": "as §1"}, "[2]": {"system": "Klebsiella pneumonia PCI 602", "test": "Antimicrobial properties (MIC)", "type": "cell-based", "source_text": "as §1"}, "Sarcina lutea PCI 1001": {"system": "Sarcina lutea PCI 1001", "test": "Antimicrobial properties (MIC)", "type": "cell-based", "source_text": "as §1"}, "Candida albicans": {"system": "Candida albicans", "test": "Antimicrobial properties (MIC)", "type": "cell-based", "source_text": "as §1"}, "Trichophyton ferrugineum": {"system": "Trichophyton ferrugineum", "test": "Antimicrobial properties (MIC)", "type": "cell-based", "source_text": "as §1"}, "[3]": {"system": "Pseudomonas aeruginosa P-3", "test": "Antimicrobial properties (MIC)", "type": "cell-based", "source_text": "as §1"}, "[4]": {"system": "Staphylococcus aureus FDA 209P", "test": "Antimicrobial properties (MIC)", "type": "cell-based", "source_text": "as §1"}, "[5]": {"system": "Bacillus subtilis PCI 219", "test": "Antimicrobial properties (MIC)", "type": "cell-based", "source_text": "as §1"}, "Sarcoma-180": {"system": "Sarcoma-180", "test": "Effect on Sarcoma-180 in mice", "type": "in vivo, mice (ICR, male, 6 weeks age)", "source_text": "Sarcome-180 (1×10^5 cells) is inoculated intra peritoneally in mice (ICR, male, 6 weeks age), administered the drug and the number of survival dates is observed."}}, "note": "Entries after “also recorded” stand apart in the source; their conditions may differ."}
{"smiles": "COC(=O)C1C(O)C(C)C(O)C(C)/C=C(/C)C(=O)c2c(OC)c(C)c(O)c3c2C(=O)C(SC)=C(NC(=O)/C(C)=C\\C=C\\C(C)C(O)C(C)C1O)C3=O", "note": "(stereo not shown) [awamycin]", "values": [{"measurement": "Solubility", "setting": "Solubility; alcohols (methanol, ethanol), chlorinated methanes, ketones, esters, benzene, toluene, dimethylformamide, dimethyl sulfoxide", "value": "soluble"}, {"measurement": "Solubility", "setting": "Solubility; diethyl ether", "value": "slightly soluble"}, {"measurement": "Solubility", "setting": "Solubility; hexane and petroleum ether", "value": "insoluble"}, {"measurement": "Solubility", "setting": "Solubility; water", "value": "slightly soluble"}, {"measurement": "antibacterial action against some Gram positive bacteria", "setting": "Gram positive bacteria", "value": "shows antibacterial action against some of Gram positive bacteria; also recorded: active against Gram positive bacteria"}, {"measurement": "Stability in heating", "setting": "Stability in heating", "value": "stable in heating"}, {"measurement": "Increased life span", "setting": "[1]; 6.3 mg/kg/day, administering date 1-9", "value": 73, "unit": "%"}, {"measurement": "Number of survival date (median)", "setting": "[1]; 6.3 mg/kg/day, administering date 1-9, control 22", "value": 38}, {"measurement": "Increased life span", "setting": "[1]; 25 mg/kg/day, administering date 0, 1", "value": 100, "unit": "%"}, {"measurement": "Number of survival date (median)", "setting": "[1]; 25 mg/kg/day, administering date 0, 1,, control 20", "value": 40}, {"measurement": "antitumor activity / growth inhibitory activity", "setting": "[1]; Ehrlich ascites carcinoma, in words", "value": "has antitumor activity; also recorded: exhibits growth inhibitory activity"}, {"measurement": "MIC", "setting": "Pyricularia oryzae", "value": "> 100", "unit": "µg/mL"}, {"measurement": "action against Gram negative bacteria", "setting": "Gram negative bacteria", "value": "no action"}, {"measurement": "action against yeast and fungi", "setting": "yeast and fungi", "value": "no action"}, {"measurement": "MIC", "setting": "Aspergillus nigar", "value": "> 100", "unit": "µg/mL"}, {"measurement": "MIC", "setting": "Shigella sonnai", "value": "> 100", "unit": "µg/mL"}, {"measurement": "MIC", "setting": "Saccharomyces sake", "value": "> 100", "unit": "µg/mL"}, {"measurement": "MIC", "setting": "Escherichia coli NIHJ", "value": "> 100", "unit": "µg/mL"}, {"measurement": "MIC", "setting": "Salmonella typhimurium", "value": "> 100", "unit": "µg/mL"}, {"measurement": "MIC", "setting": "[2]", "value": "> 100", "unit": "µg/mL"}, {"measurement": "MIC", "setting": "Sarcina lutea PCI 1001", "value": 0.05, "unit": "µg/mL"}, {"measurement": "MIC", "setting": "Candida albicans", "value": "> 100", "unit": "µg/mL"}, {"measurement": "MIC", "setting": "Trichophyton ferrugineum", "value": "> 100", "unit": "µg/mL"}, {"measurement": "MIC", "setting": "[3]", "value": "> 100", "unit": "µg/mL"}, {"measurement": "MIC", "setting": "[4]", "value": 0.8, "unit": "µg/mL"}, {"measurement": "MIC", "setting": "[5]", "value": 0.1, "unit": "µg/mL"}, {"measurement": "Increased life span", "setting": "Sarcoma-180; 0.75 mg/kg/day, administering day 1-9", "value": 64, "unit": "%"}, {"measurement": "Number of survival dates (mean value)", "setting": "Sarcoma-180; 0.75 mg/kg/day, administering day 1-9, control 14", "value": 23}, {"measurement": "Increased life span", "setting": "Sarcoma-180; 1.5 mg/kg/day, administering day 1-9", "value": 200, "unit": "%"}, {"measurement": "Number of survival dates (mean value)", "setting": "Sarcoma-180; 1.5 mg/kg/day, administering day 1-9, control 14", "value": 42}, {"measurement": "Increased life span", "setting": "Sarcoma-180; 3.1 mg/kg/day, administering day 1-9", "value": "> 329", "unit": "%"}, {"measurement": "Number of survival dates (mean value)", "setting": "Sarcoma-180; 3.1 mg/kg/day, administering day 1-9, control 14", "value": "> 60"}, {"measurement": "Increased life span", "setting": "Sarcoma-180; 6.3 mg/kg/day, administering day 1-9", "value": 186, "unit": "%"}, {"measurement": "Number of survival dates (mean value)", "setting": "Sarcoma-180; 6.3 mg/kg/day, administering day 1-9, control 14", "value": 40}, {"measurement": "Increased life span", "setting": "Sarcoma-180; 25 mg/kg/day, administering day 0, 1", "value": 100, "unit": "%"}, {"measurement": "Number of survival dates (mean value)", "setting": "Sarcoma-180; 25 mg/kg/day, administering day 0, 1,, control 12", "value": 24}, {"measurement": "antitumor activity / growth inhibitory activity", "setting": "Sarcoma-180; Sarcoma-180, in words", "value": "has antitumor activity; also recorded: exhibits growth inhibitory activity"}]}
